Laboratory results published in ChEMBL document CHEMBL5543137, “Design and Synthesis of Novel Ultralong-Acting Peptides as EDP-EBP Interaction Inhibitors for Pulmonary Fibrosis Treatment” (J Med Chem, 2024).
Activity calls are given as the source filed them. The calls are words filed in the database; no cut-off is given here. Starred links: 1 amine or outer side, 2 acyl side, 3 side chain; linkers in the order of their positions; H or OH if unused. Non-standard residues stand in square brackets, D forms with d. Residues, ends and D or L forms follow the SMILES beside them. *: point of attachment. C20 diacid = O=C(O)CCCCCCCCCCCCCCCCCCC(=O)*; γGlu = O=C(O)[C@H](CCC(=O)[*:2])N[*:1]; Iva = CC[C@](C)(N)C(=O)O; PEG2 = NCCOCCOCCC(=O)O

Experiments:
Homo sapiens = organism: Homo sapiens; assay: Inhibition of neuraminidase (unknown origin) at 0.005 to 500 uM; details: dose 0.005-500 µM
[1] = Binding affinity to EBP (unknown origin) by ITC method; design: species or system Homo sapiens
[2] = Tmax in Sprague-Dawley rat serum at 0.04 mg/kg, sc administered as single dose measured upto 10 days by LC-MS/MS method; format: ADME, organism-based; details: time < 10 day
[3] = Half life in cynomolgus monkey at 0.06 mg/kg, sc administered as single dose measured upto 30 days by LC-MS/MS method; format: ADME, organism-based, Macaca fascicularis; details: in vivo, time < 30 day
A549 [4] = assay: Antifibrotic activity against TNFalpha-induced human A549 cells assessed as downregulation of Fn gene expression level at 10 uM incubated for 24 hrs by RT-qPCR analysis; format: functional, cell-based
A549 [5] = assay: Inhibition of EBP signaling pathway in TGFalpha induced human A549 cells assessed as reduction in PI3K phosphorylation at 10 uM incubated for 24 hrs by Western blotting analysis; format: cell-based
TC-1 [6] = assay: Inhibition of EBP signaling pathway in TGFalpha induced mouse TC-1 cells assessed as reduction in PI3K phosphorylation at 10 uM incubated for 24 hrs by Western blotting analysis; format: cell-based
Mus musculus [7] = assay: Antifibrotic activity against BLM-induced C57BL/6 mouse pulmonary fibrosis model assessed as reversal of body weight loss at 150 ug/kg, sc administered for 2 weeks starting from 7 days post BLM induction and measured after 21 days post BLM induction; format: functional, organism-based; details: dose 150.0 µg/kg
Mus musculus [8] = assay: Antifibrotic activity against BLM-induced C57BL/6 mouse pulmonary fibrosis model assessed as downregulation of Acta2 gene expression in lung tissue at 150 ug/kg, sc administered for 2 weeks starting from 7 days post BLM induction and measured after 21 days post BLM induction by RT-qPCR assay; format: functional, organism-based; details: dose 150.0 µg/kg
Mus musculus [9] = assay: Antifibrotic activity against BLM-induced C57BL/6 mouse pulmonary fibrosis model assessed as downregulation of IL-6 gene expression in lung tissue at 150 ug/kg, sc administered for 2 weeks starting from 7 days post BLM induction and measured after 21 days post BLM induction by RT-qPCR assay; format: functional, organism-based; details: dose 150.0 µg/kg
Mus musculus [10] = assay: Antifibrotic activity against BLM-induced C57BL/6 mouse pulmonary fibrosis model assessed as improvement in lung condition at 30 to 240 ug/kg, sc administered for 2 weeks starting from 7 days post BLM induction and measured after 21 days post BLM induction; format: functional, organism-based; details: dose 30-240 µg/kg
Mus musculus [11] = assay: Antifibrotic activity against BLM-induced sc dosed C57BL/6 mouse pulmonary fibrosis model assessed as reversal of lung indices administered for 2 weeks starting from 7 days post BLM induction and measured after 21 days post BLM induction; format: functional, organism-based; details: dose 30-240 µg/kg
Mus musculus [12] = assay: Antifibrotic activity against BLM-induced C57BL/6 mouse pulmonary fibrosis model assessed as reduction in ECM1 gene expression at 240 ug/kg/day, sc administered for 2 weeks starting from 7 days post BLM induction and measured after 21 days post BLM induction by ScRNA-sequencing analysis; format: functional, organism-based; details: dose 240.0 µg/kg/day
Mus musculus [13] = assay: Antifibrotic activity against BLM-induced C57BL/6 mouse pulmonary fibrosis model assessed as reduction in Col3a1 gene expression at 240 ug/kg/day, sc administered for 2 weeks starting from 7 days post BLM induction and measured after 21 days post BLM induction by ScRNA-sequencing analysis; format: functional, organism-based; details: dose 240.0 µg/kg/day
Mus musculus [14] = assay: Antifibrotic activity against BLM-induced C57BL/6 mouse pulmonary fibrosis model assessed as reduction in spp1 gene expression at 240 ug/kg/day, sc administered for 2 weeks starting from 7 days post BLM induction and measured after 21 days post BLM induction by ScRNA-sequencing analysis; format: functional, organism-based; details: dose 240.0 µg/kg/day
Mus musculus [15] = assay: Antifibrotic activity against BLM-induced C57BL/6 mouse pulmonary fibrosis model assessed as reduction in Tnc gene expression at 240 ug/kg/day, sc administered for 2 weeks starting from 7 days post BLM induction and measured after 21 days post BLM induction by ScRNA-sequencing analysis; format: functional, organism-based; details: dose 240.0 µg/kg/day
Mus musculus [16] = assay: Antifibrotic activity against BLM-induced C57BL/6 mouse pulmonary fibrosis model assessed as reduction in Adamts2 gene expression at 240 ug/kg/day, sc administered for 2 weeks starting from 7 days post BLM induction and measured after 21 days post BLM induction by ScRNA-sequencing analysis; format: functional, organism-based; details: dose 240.0 µg/kg/day
Mus musculus [17] = assay: Antifibrotic activity against BLM-induced C57BL/6 mouse pulmonary fibrosis model assessed as reduction in Tpm1 gene expression at 240 ug/kg/day, sc administered for 2 weeks starting from 7 days post BLM induction and measured after 21 days post BLM induction by ScRNA-sequencing analysis; format: functional, organism-based; details: dose 240.0 µg/kg/day
Mus musculus [18] = assay: Antifibrotic activity against BLM-induced C57BL/6 mouse pulmonary fibrosis model assessed as inhibition of activated fibroblast signature at 240 ug/kg/day, sc administered for 2 weeks starting from 7 days post BLM induction and measured after 21 days post BLM induction by gene enrichment analysis; format: functional, organism-based; details: dose 240.0 µg/kg/day
RAW264.7 [19] = assay: Antifibrotic activity against BLM-induced mouse RAW264.7 cells assessed as upregulation of MMP-12 mRNA expression at 10 uM incubated for 6 to 24 hrs by RT-qPCR analysis; format: functional, cell-based; details: time 6-24 hrs
RAW264.7 [20] = assay: Induction of cell migration in mouse RAW264.7 cells at 10 uM by DAPI staining based assay; format: functional
A549 [21] = assay: Antifibrotic activity against BLM-induced human A549 cells cocultured with RAW264.7 cells assessed as reduction in Fn expression at 10 uM after 24 hrs by Western blotting analysis; format: functional, cell-based
TC-1 [22] = assay: Antifibrotic activity against BLM-induced mouse TC-1 cells assessed as reduction in FN expression at 10 uM after 24 hrs by Western blotting analysis; format: functional, cell-based
RAW264.7 [23] = assay: Antifibrotic activity against BLM-induced mouse RAW264.7 cells assessed as downregulation in TIMP-1 expression at 10 uM after 24 hrs by Western blotting analysis; format: functional, cell-based
Mus musculus [24] = assay: Antifibrotic activity against BLM-induced C57BL/6 mouse pulmonary fibrosis model at 240 ug/kg/day, sc administered for 2 weeks starting from 7 days post BLM induction and measured after 21 days post BLM induction in presence of Clo-Lip; format: functional, organism-based; details: dose 240.0 µg/kg/day
Mus musculus [25] = assay: Antifibrotic activity against BLM-induced C57BL/6 mouse pulmonary fibrosis model assessed as reduction in Vimentin expression at 240 ug/kg/day, sc administered for 2 weeks starting from 7 days post BLM induction and measured after 21 days post BLM induction in presence of Clo-Lip; format: functional, organism-based; details: dose 240.0 µg/kg/day
Mus musculus [26] = assay: Antifibrotic activity against BLM-induced C57BL/6 mouse pulmonary fibrosis model assessed as reduction in alpha-SMA expression at 240 ug/kg/day, sc administered for 2 weeks starting from 7 days post BLM induction and measured after 21 days post BLM induction in presence of Clo-Lip; format: functional, organism-based; details: dose 240.0 µg/kg/day
Mus musculus [27] = assay: Antifibrotic activity against BLM-induced C57BL/6 mouse pulmonary fibrosis model assessed as reduction in TIMP-1 expression at 240 ug/kg/day, sc administered for 2 weeks starting from 7 days post BLM induction and measured after 21 days post BLM induction in presence of Clo-Lip; format: functional, organism-based; details: dose 240.0 µg/kg/day
Mus musculus [28] = assay: Antifibrotic activity against BLM-induced C57BL/6 mouse pulmonary fibrosis model assessed as reduction in TIMP-1 expression at 240 ug/kg/day, sc administered for 2 weeks starting from 7 days post BLM induction and measured after 21 days post BLM induction in presence of GM6001; format: functional, organism-based; details: dose 240.0 µg/kg/day

CC[C@](C)(NC(=O)[C@@H](NC(=O)CCOCCOCCNC(=O)CCOCCOCCNC(=O)CC[C@H](NC(=O)CCCCCCCCCCCCCCCCCCC(=O)O)C(=O)O)C(C)C)C(=O)NCC(=O)N[C@@H](CO)C(=O)N1CCC[C@H]1C(=O)N[C@@H](CO)C(=O)N[C@@H](C)C(=O)N[C@@H](CCC(N)=O)C(=O)N[C@@H](CCC(=O)O)C(=O)N[C@@H](CCC(=O)O)C(=O)N[C@@H](C)C(=O)N[C@@H](CO)C(=O)N1CCC[C@H]1C(=O)N[C@@H](C)C(N)=O ({C20 diacid-γGlu-PEG2-PEG2}-V[Iva]GSPSAQEEASPA-NH2)
inhibition (Homo sapiens): Active | Kd [1]: 117 µM | Tmax [2]: 24 h | half-life [3]: 257 h | Activity (A549 [4]): Active | inhibition (A549 [5]): Active | inhibition (TC-1 [6]): Active | Activity (Mus musculus [7]): Active | Activity (Mus musculus [8]): Active | Activity (Mus musculus [9]): Active | Activity (Mus musculus [10]): Active | Activity (Mus musculus [11]): Dose-Dependent Effect | Activity (Mus musculus [12]): Active | Activity (Mus musculus [13]): Active | Activity (Mus musculus [14]): Active | Activity (Mus musculus [15]): Active | Activity (Mus musculus [16]): Active | Activity (Mus musculus [17]): Active | Activity (Mus musculus [18]): Active | Activity (RAW264.7 [19]): Active | Activity (RAW264.7 [20]): Active | Activity (A549 [21]): Active | Activity (TC-1 [22]): Active | Activity (RAW264.7 [23]): Active | Activity (Mus musculus [24]): inactive | Activity (Mus musculus [25]): inactive | Activity (Mus musculus [26]): inactive | Activity (Mus musculus [27]): inactive | Activity (Mus musculus [28]): inactive
